From patent US7192617B2, “Whitening agent, skin preparation for external use and cosmetic” (priority 2002, dated 2007)

Test: Test for measuring DPPH radical scavenging activity
Conditions: 30 minutes of reaction at 30° C., absorbance at 517 nm; in terms of the evaporation residue
Method: 800 μl of a 500 μM DPPH solution was added to the test tube, stirred, and reacted at 30° C. Exactly after 30 minutes of reaction, the absorbance of the sample at 517 nm was measured, using distilled water as a standard. From the measured absorbances, the DPPH radical scavenging ratio was calculated, and the 50% radical scavenging activity (IC50) was obtained. The same procedure was performed with α-tocopherol, which is a known antioxidative component, for measuring the DPPH radical scavenging activity. […] From the measured values, the DPPH radical scavenging ratios were calculated.

Cc1c(C)c2c(c(C)c1O)CC[C@@](C)(CCC[C@H](C)CCC[C@H](C)CCCC(C)C)O2 [α-tocopherol]
50% DPPH radical scavenging activity (IC50): 0.13 mg/g
